Patent US20240336593A1, “Compound Having Antitumor Activity And Use Thereof” (lnnovStoneTherapeutics Limited, priority 2020, published 2024)

Each compound was assayed against PRMT5 (Homo sapiens (Human), UniProt O14744) (assay: Inhibitory activity against PRMT5 enzyme by radioisotopic method). Conditions: PRMT5 5 nM, [3H]-SAM 0.3 μM, polypeptide substrate GL-27 100 nM, room temperature.
Type: biochemical
Description: Test Example 1. Test on the inhibitory activity of the compounds of the invention against PRMT5 enzyme by radioisotopic method
Test method: A 1× enzyme reaction buffer (10 mM Tris 8.0 (Sigma, Cat. No. T2694-1L), 0.01% Tween-20 (Sigma, Cat. No. P2287-100 ML), 1 mM DTT (Sigma, Cat. No. D0632-10G)) was prepared. PRMT5 (Active Motif, Cat. No. 31921) and [3H]—SAM (PerkinElmer, Cat. No. NET155V001MC) were added to the 1×enzyme reaction buffer, to prepare a 25/15× mixed solution (PRMT5 final concentration: 5 nM, [3H]—SAM final concentration: 0.3 μM). 15 μL of this solution was transferred into a 384-well microplate (Corning 384-well Polypropylene Storage Microplates, Cat. No. 3657) with various concentrations of the compounds (DMSO final concentration 1%), and incubated at room temperature for 60 minutes. A polypeptide substrate, GL-27 (Ac-[…]-K (Biotin) (GL Biochem, Cat. No. 342095)), was added into the 1×enzyme reaction buffer to prepare a 25/10× substrate solution. Then 10 μL of the polypeptide substrate solution (final concentration of the polypeptide substrate: 100 nM) was added, a reaction was stirred at room temperature for 120 minutes, and then 5 μL 6× ice cold SAM (Sigma, Cat. No. A7007-100 MG) solution was added to stop the reaction (SAM final concentration: 0.125 mM). 25 µL of the reaction mixture was transferred into a FlashPlate (Streptavidin FlashPlate HTS PLUS, High Capacity, 384-well, Perkin Elmer, Cat. No. SMP410A001PK), and incubated at room temperature for 1 h. After washed three times with distilled water containing 0.1% Tween-20, the microplate was read on a MicroBeta reader for CPM data (Counts Per Minute). […] Then the inhibition rate Inh % (Y) corresponding to each concentration (X) was input in EXCEL, and the IC50 value (the half maximal inhibitory concentration) of each compound was calculated with the XLfit plug-in according to the built-in four-parameter fitting equation Y=Bottom+(Top-Bottom)/(1+(IC50/X)[…]).

Chain of PRMT5 (O14744 whole entry): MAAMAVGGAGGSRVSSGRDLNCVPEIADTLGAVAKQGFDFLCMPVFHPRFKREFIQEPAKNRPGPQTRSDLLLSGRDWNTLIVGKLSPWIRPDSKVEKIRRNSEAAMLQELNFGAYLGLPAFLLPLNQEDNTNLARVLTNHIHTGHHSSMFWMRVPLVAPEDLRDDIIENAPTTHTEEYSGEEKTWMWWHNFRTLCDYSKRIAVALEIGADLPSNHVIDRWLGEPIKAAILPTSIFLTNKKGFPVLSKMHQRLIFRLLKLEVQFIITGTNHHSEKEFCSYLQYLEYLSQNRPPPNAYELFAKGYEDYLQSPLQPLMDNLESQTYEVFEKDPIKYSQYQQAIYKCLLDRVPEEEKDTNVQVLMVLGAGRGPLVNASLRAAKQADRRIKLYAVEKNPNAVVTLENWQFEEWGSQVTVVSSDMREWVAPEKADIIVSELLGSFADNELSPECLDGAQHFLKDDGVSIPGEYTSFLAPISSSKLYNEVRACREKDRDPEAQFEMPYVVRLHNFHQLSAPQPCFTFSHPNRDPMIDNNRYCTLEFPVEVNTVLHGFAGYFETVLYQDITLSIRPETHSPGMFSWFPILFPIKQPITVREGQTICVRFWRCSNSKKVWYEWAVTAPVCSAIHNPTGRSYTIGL
Chain of PRMT5 (Q9BQA1 whole entry partner): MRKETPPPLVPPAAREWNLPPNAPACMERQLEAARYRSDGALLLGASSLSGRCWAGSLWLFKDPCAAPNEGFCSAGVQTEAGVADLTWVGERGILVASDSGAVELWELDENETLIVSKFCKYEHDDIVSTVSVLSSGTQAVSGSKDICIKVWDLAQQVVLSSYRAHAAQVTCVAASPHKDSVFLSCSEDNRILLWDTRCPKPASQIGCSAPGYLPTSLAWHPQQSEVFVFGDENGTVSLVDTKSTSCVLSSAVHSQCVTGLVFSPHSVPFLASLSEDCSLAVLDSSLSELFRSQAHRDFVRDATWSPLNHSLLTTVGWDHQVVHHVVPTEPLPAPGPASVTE

IC50, < 100 nM:
O[C@@H]1CN(c2cc(Nc3ccccc3N3CCCC3)ncn2)CC[C@H]1N1CCc2ccccc2C1 (relative stereo) [Example 80, trans-4-(3,4-dihydroisoquinolin-2(1H)-yl)-1-(6-((2-(pyrrolidin-1-yl)phenyl)amino)pyrimidin-4-yl)piperidin-3-ol]
O[C@H]1CN(c2cc(Nc3ccccc3OC(F)(F)F)ncn2)CC[C@@H]1N1CCc2ccccc2C1 (relative stereo) [Example 84, trans-4-(3,4-dihydroisoquinolin-2(1H)-yl)-1-(6-((2-(trifluoromethoxy)-phenyl)amino)pyrimidin-4-yl)piperidin-3-ol]
O[C@@H]1CN(c2cc(Nc3cccc(F)c3F)ncn2)CC[C@H]1N1CCc2ccccc2C1 (relative stereo) [Example 87, trans-1-(6-((2,3-difluorophenyl)amino)pyrimidin-4-yl)-4-(3,4-dihydroisoquinolin-2(1H)-yl)piperidin-3-ol]
COc1c(F)cccc1Nc1cc(N2CC[C@@H](N3CCc4ccccc4C3)[C@H](O)C2)ncn1 (relative stereo) [Example 88, trans-1-(6-((3-fluoro-2-methoxyphenyl)amino)pyrimidin-4-yl)-4-(3,4-dihydroisoquinolin-2(1H)-yl)piperidin-3-ol]
CCOc1ccccc1Nc1cc(N2CC[C@@H](N3CCc4ccccc4C3)[C@H](O)C2)ncn1 (relative stereo) [Example 90, trans-1-(6-((2-ethoxyphenyl)amino)pyrimidin-4-yl)-4-(3,4-dihydroisoquinolin-2(1H)-yl)piperidin-3-ol]
O[C@@H]1CN(c2cc(Nc3ccccc3OCC(F)(F)F)ncn2)CC[C@H]1N1CCc2ccccc2C1 (relative stereo) [Example 91, trans-1-(6-((2-(2,2,2-trifluoroethoxy)phenyl)amino)pyrimidin-4-yl)-4-(3,4-dihydroisoquinolin-2(1H)-yl)piperidin-3-ol]
COc1ccc(F)cc1Nc1cc(N2CC[C@@H](N3CCc4ccccc4C3)[C@H](O)C2)ncn1 (relative stereo) [Example 92, trans-1-(6-((5-fluoro-2-methoxyphenyl)amino)pyrimidin-4-yl)-4-(3,4-dihydroisoquinolin-2(1H)-yl)piperidin-3-ol]
COc1cc(F)ccc1Nc1cc(N2CC[C@H](N3CCc4ccccc4C3)[C@@H](O)C2)ncn1 (relative stereo) [Example 93, trans-4-(3,4-dihydroisoquinolin-2(1H)-yl)-1-(6-((4-fluoro-2-methoxyphenyl)amino)pyrimidin-4-yl)piperidin-3-ol]
O[C@H]1CN(c2cc(Nc3cccc4c3OCCO4)ncn2)CC[C@@H]1N1CCc2ccccc2C1 (relative stereo) [Example 94, trans-1-(6-((2,3-dihydrobenzo[b][1,4]dioxin-5-yl)amino)pyrimidin-4-yl)-4-(3,4-dihydroisoquinolin-2(1H)-yl)piperidin-3-ol]
O[C@@H]1CN(c2cc(Nc3ccc(N4CCCC4)cc3)ncn2)CC[C@H]1N1CCc2ccccc2C1 (relative stereo) [Example 95, trans-4-(3,4-dihydroisoquinolin-2(1H)-yl)-1-(6-((4-(pyrrolidin-1-yl)phenyl)amino)pyrimidin-4-yl)piperidin-3-ol]
O=C(C(=O)N1CCC2(CC1)CC(Nc1cc(C(=O)N3CC[C@H](N4CCc5ccccc5C4)[C@@H](O)C3)ncn1)C2)C1CC1 (relative stereo) [Example 98, 1-cyclopropyl-2-(2-((6-(trans-4-(3,4-dihydroisoquinolin-2(1H)-yl)-3-hydroxypiperidine-1-carbonyl)pyrimidin-4-yl)amino)-7-azaspiro[3.5]nonan-7-yl)ethane-1,2-dione]
O=C(C(=O)N1CCC(Nc2cc(C(=O)N3CC[C@H](N4CCc5ccccc5C4)[C@@H](O)C3)ncn2)CC1)C1CC1 (relative stereo) [Example 99, trans-1-cyclopropyl-2-(4-((6-(4-(3,4-dihydroisoquinolin-2(1H)-yl)-3-hydroxypiperidine-1-carbonyl)pyrimidin-4-yl)amino)piperidin-1-yl)ethane-1,2-dione]
CC(=O)N1CCC(Nc2cc(C(=O)N3CC[C@H](N4CCc5ccccc5C4)[C@@H](O)C3)c(C(F)(F)F)cn2)CC1 (relative stereo) [Example 102, trans-1-(4-((4-(4-(3,4-dihydroisoquinolin-2(1H)-yl)-3-hydroxypiperidine-1-carbonyl)-5-(trifluoromethyl)pyridin-2-yl)amino)piperidin-1-yl)ethan-1-one]
CC(=O)N1CCCC(Nc2cc(C(=O)N3CC[C@H](N4CCc5ccccc5C4)[C@@H](O)C3)ncn2)C1 (relative stereo) [Example 106, trans-1-(3-((6-(4-(3,4-dihydroisoquinolin-2(1H)-yl)-3-hydroxypiperidine-1-carbonyl)pyrimidin-4-yl)amino)piperidin-1-yl)ethan-1-one]
CC(C)(C)OC(=O)N1CCC(Nc2cc(C(=O)N3CC[C@H](N4CCc5ccccc5C4)[C@@H](O)C3)ncn2)CC1 (relative stereo) [Example 110, t-butyl trans-4-((6-(4-(3,4-dihydroisoquinolin-2(1H)-yl)-3-hydroxypiperidine-1-carbonyl)pyrimidin-4-yl)amino)piperidine-1-carboxylate]
CC(=O)N1CCC(Nc2cc(C(=O)N3CC[C@H](N4CCc5ccccc5C4)[C@@H](O)C3)nc(C)n2)CC1 (relative stereo) [Example 111, trans-1-(4-((6-(4-(3,4-dihydroisoquinolin-2(1H)-yl)-3-hydroxypiperidine-1-carbonyl)-2-methylpyrimidin-4-yl)amino)piperidin-1-yl)ethan-1-one]
COCC(=O)N1CCC(Nc2cc(C(=O)N3CC[C@H](N4CCc5ccccc5C4)[C@@H](O)C3)ncn2)CC1 (relative stereo) [Example 113, 1-(4-((6-(trans-4-(3,4-dihydroisoquinolin-2(1H)-yl)-3-hydroxypiperidine-1-carbonyl)pyrimidin-4-yl)amino)piperidin-1-yl)-2-methoxyethan-1-one]
CC(=O)N1CCC(CCNc2cc(C(=O)N3CC[C@H](N4CCc5ccccc5C4)[C@@H](O)C3)ncn2)CC1 (relative stereo) [Example 115, trans-1-(4-(2-((6-(4-(3,4-dihydroisoquinolin-2(1H)-yl)-3-hydroxy-piperidine-1-carbonyl)pyrimidin-4-yl)amino)ethyl)piperidin-1-yl)ethanone]
O=C(c1cc(NC2CCN(C(=O)C3CC3)CC2)ncn1)N1CC[C@H](N2CCc3ccccc3C2)[C@@H](O)C1 (relative stereo) [Example 116, trans-(6-((1-(cyclopropanecarbonyl)piperidin-4-yl)amino)pyrimidin-4-yl)(4-(3,4-dihydroisoquinolin-2(1H)-yl)-3-hydroxypiperidin-1-yl)ketone]
CC(=O)N1CCC(Nc2cc(C(=O)N3CC[C@H](N4CCc5ccccc5C4)[C@@H](O)C3)nc(Cl)n2)CC1 (relative stereo) [Example 117, trans-1-(4-((2-chloro-6-(4-(3,4-dihydroisoquinolin-2(1H)-yl)-3-hydroxypiperidine-1-carbonyl)pyrimidin-4-yl)amino)piperidin-1-yl)ethan-1-one]
CC(=O)N1CCC(Nc2cc(C(=O)N3CC[C@H](N4CCc5ccccc5C4)[C@@H](O)C3)nc(N(C)C)n2)CC1 (relative stereo) [Example 118, trans-1-(4-((6-(4-(3,4-dihydroisoquinolin-2(1H)-yl)-3-hydroxypiperidine-1-carbonyl)-2-(dimethylamino)pyrimidin-4-yl)amino)piperidin-1-yl)ethan-1-one]
CC(=O)N1CCC(Sc2cc(C(=O)N3CC[C@H](N4CCc5ccccc5C4)[C@@H](O)C3)ncn2)CC1 (relative stereo) [Example 119, trans-1-(4-((6-(4-(3,4-dihydroisoquinolin-2(1H)-yl)-3-hydroxypiperidine-1-carbonyl)pyrimidin-4-yl)thio)piperidin-1-yl)ethan-1-one]
COc1nc(NC2CCN(C(C)=O)CC2)cc(C(=O)N2CC[C@H](N3CCc4ccccc4C3)[C@@H](O)C2)n1 (relative stereo) [Example 120, 1-(4-((6-(trans-4-(3,4-dihydroisoquinolin-2(1H)-yl)-3-hydroxypiperidine-1-carbonyl)-2-methoxypyrimidin-4-yl)amino)piperidin-1-yl)ethan-1-one]
